Results from patent publication US6610738B2, “N-disubstituted carbamoyloxy flavones” (priority 2000, dated 2003).
Read-outs that look alike come from different tables or passages of the source.

Columns and labels:
acetylcholine esterase [1] = molecular target: acetylcholine esterase (Homo sapiens, UniProt P22303); experiment: biochemical
acetylcholine esterase [2] = experiment: AChE inhibition ex vivo (Table II); format: in vivo
[3] = time not given, read-out: AchE inhibition IC50
[4] = read-out: AchE inhibition IC50 (5′)
[5] = read-out: AchE inhibition IC50 (30′)

Sequence of acetylcholine esterase (Homo sapiens, UniProt P22303) (P22303 32-614): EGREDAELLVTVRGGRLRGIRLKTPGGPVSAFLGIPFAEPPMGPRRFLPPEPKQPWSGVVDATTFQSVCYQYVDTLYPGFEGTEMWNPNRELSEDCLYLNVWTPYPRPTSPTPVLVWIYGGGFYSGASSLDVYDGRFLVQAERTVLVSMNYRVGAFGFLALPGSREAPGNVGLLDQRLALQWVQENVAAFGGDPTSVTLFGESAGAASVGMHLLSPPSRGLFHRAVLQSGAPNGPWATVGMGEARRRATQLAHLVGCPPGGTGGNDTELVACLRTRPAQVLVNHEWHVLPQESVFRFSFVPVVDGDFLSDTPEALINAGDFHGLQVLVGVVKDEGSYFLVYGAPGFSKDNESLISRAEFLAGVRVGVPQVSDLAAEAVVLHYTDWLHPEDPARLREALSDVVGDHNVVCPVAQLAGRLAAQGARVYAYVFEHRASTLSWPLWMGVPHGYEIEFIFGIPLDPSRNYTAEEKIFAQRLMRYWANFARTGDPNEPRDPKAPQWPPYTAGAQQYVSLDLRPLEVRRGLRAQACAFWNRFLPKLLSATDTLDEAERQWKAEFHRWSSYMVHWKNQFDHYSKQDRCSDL

| melting point [°C] | Structure (SMILES) | IC50 (acetylcholine esterase [1]; [3]) [µM] | also measured |
| --- | --- | --- | --- |
| 167 to 168 | CN(C)C(=O)Oc1cccc(-c2cc(=O)c3cc(N(C)C)ccc3o2)c1 |  |  |
| 166 to 168 | CCOc1ccc2c(=O)cc(-c3ccccc3OC(=O)N(C)C)oc2c1 |  |  |
| 91 to 93.5 | CCOc1ccc2c(=O)cc(-c3ccccc3OC(=O)N(C)CC)oc2c1 |  |  |
| 133.5 to 135 | COc1ccccc1-c1cc(=O)c2ccc(OC(=O)N(C)C)cc2o1 |  |  |
| 145.5 to 147 | CN(C)C(=O)Oc1ccc2c(=O)cc(-c3ccccc3OC(=O)N(C)C)oc2c1 |  |  |
| 157 to 159 | CN(C)C(=O)Oc1cccc(-c2cc(=O)c3cc(N)ccc3o2)c1 |  |  |
|  | CN(C)C(=O)Oc1ccccc1-c1cc(=O)c2ccccc2o1 | 2.65 | AchE inhibition Ex vivo (acetylcholine esterase [2]; at 40 μM/kg): 29% at 40 μM/kg |
|  | CN(C)C(=O)Oc1cccc(-c2cc(=O)c3ccccc3o2)c1 | 1.4 | AchE inhibition Ex vivo (acetylcholine esterase [2]; at 40 μM/kg): 42% at 40 μM/kg |
|  | CCN(C)C(=O)Oc1cccc(-c2cc(=O)c3ccccc3o2)c1 | 41 |  |
|  | CCN(C)C(=O)Oc1ccccc1-c1cc(=O)c2ccccc2o1 | 3.5 | AchE inhibition Ex vivo (acetylcholine esterase [2]; at 50 μM/kg): 14% at 50 μM/kg |
|  | C[N+](C)(C)c1ccc2oc(-c3ccccc3)cc(=O)c2c1 |  | IC50 (acetylcholine esterase [1]; [4]): 10.5 µM; IC50 (acetylcholine esterase [1]; [5]): 48 µM |
|  | COc1ccc(-c2cc(=O)c3cc([N+](C)(C)C)ccc3o2)cc1 |  | IC50 (acetylcholine esterase [1]; [4]): 5.5 µM; IC50 (acetylcholine esterase [1]; [5]): 6 µM |
|  | CN(C)CCOc1cccc(-c2cc(=O)c3ccccc3o2)c1 |  | IC50 (acetylcholine esterase [1]; [4]): 10 µM; IC50 (acetylcholine esterase [1]; [5]): 5.8 µM |
